Data reported in PubChem BioAssay (NCI).
Several values for one entry are separate records, joined by “and”; a condition that tells them apart may be missing. Identical values can stand only once.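 How tested: cells in 96-well plates exposed to compound for 48 hours at five concentrations. At the GI50, growth is halved. At the TGI there is no net growth.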

Legend:
Test in all cases: NCI tumour cell line growth inhibition, 48 h
[1] = test system: SK-OV-3 ovarian
[2] = test system: SW-620 colon
[3] = test system: HT29 colon
[4] = test system: OVCAR-4 ovarian
[5] = test system: MDA-N
[6] = test system: SNB-19 CNS
[7] = test system: UO-31 renal
[8] = test system: M14 melanoma
[9] = test system: DU-145 prostate
[10] = test system: PC-3 prostate

Row | Compound | TGI [1] | TGI [2] [µM] | TGI [3] | TGI [4] [µM] | TGI [5] | TGI [6] | TGI [7] | TGI [8] [µM] | TGI [9] | TGI [10] | GI50 [1] [µM] | GI50 [3] [µM] | GI50 [10] [µM] | GI50 [5] [µM] | GI50 [6] [µM] | GI50 [7] [µM] | GI50 [9] [µM]
1 | N[C@H](Cc1ccc2oc3cc(=O)c4ccccc4c-3nc2c1)C(=O)O | > 100 µM | > 100 | > 100 µM | > 100 | 38.1 µM | > 100 µM | > 100 µM | 39.9 | 51.7 µM | – | – | – | – | – | – | – | –
2 | COc1cc2c(cc1O)NC(=O)[C@@H]1CCCN1C2=O | > 100 µM | > 100 | > 100 µM | > 100 | > 100 µM | > 100 µM | > 100 µM | > 100 | > 100 µM | > 100 µM | – | – | – | – | – | – | –
3 | C=C1CC[C@H]2C(=O)OC(c3ccoc3)C[C@]2(C)C/C=C\C=C/1C(=O)OC (stereo not given in full) | > 25 µM | > 25 | > 25 µM | > 25 | > 25 µM | > 25 µM | > 25 µM | > 25 | – | > 25 µM | – | – | – | – | – | – | –
4 | c1ccc2c3[nH]c(c2c1)=Nc1ccc(cc1)-c1nc2ccc(cc2o1)N=c1[nH]c(c2ccccc12)=Nc1ccc2nc(oc2c1)-c1ccc(cc1)N=3 | > 100 µM | > 100 | > 100 µM | – | > 100 µM | 81 µM | 45.5 µM | > 100 | > 100 µM | > 100 µM | – | – | – | – | – | – | –
5 | Cn1nnnc1SC(F)(F)c1nc2ccccc2o1 | > 100 µM | > 100 | > 100 µM | > 100 | > 100 µM | – | > 100 µM | > 100 | > 100 µM | > 100 µM | – | – | – | – | – | – | –
6 | CCOC(=O)C(NC(=O)c1ccccc1)(N1CCN(c2cc3c(cc2F)c(=O)c(C(=O)O)cn3C2CC2)CC1)C(F)(F)F (stereo not given) | 80.2 µM | 51.1 | – | 63.4 | 46.8 µM | > 100 µM | 63.3 µM | 40.7 | > 100 µM | 60.2 µM | – | – | – | – | – | – | –
7 | O=C(CBr)c1ccc2cc(Br)c3ccccc3c2c1 | – | 74.4 | > 100 µM | 58.9 | – | 64.6 µM | 62.7 µM | 84 | 46.4 µM | 53.1 µM | – | – | – | – | – | – | –
8 | CCOC(=O)c1ccc(-c2ccc(Cl)cc2)[nH]1 | > 10 µM | – | > 10 µM | > 10 | > 10 µM | > 10 µM | > 10 µM | > 10 | > 10 µM | – | – | – | – | – | – | – | –
9 | COCCn1cnc2c(Cl)nc(Nc3ccccc3)nc21 | > 100 µM | > 100 | > 100 µM | 46.7 | – | > 100 µM | – | 60.8 | > 100 µM | 56.4 µM | – | – | – | – | – | – | –
10 | CC(=O)O[C@]12CCCCCC1C1(O)C(O)CCCCC12 (stereo not given in full) | > 100 µM | > 100 | > 100 µM | > 100 | – | > 100 µM | > 100 µM | > 100 | – | – | – | – | – | – | – | – | –
11 | O=C1CC(=O)NC(=NN2C(=O)/C(=C/c3ccc(Cl)c(Cl)c3)N=C2c2ccccc2)N1 | > 100 µM | > 100 | 44.4 µM | > 100 | 90.7 µM | – | > 100 µM | 83.5 | > 100 µM | 72.7 µM | – | – | – | – | – | – | –
12 | CC(=O)c1c(N=[N+]=[N-])c2cccc3c2n(c1=O)CCC3 | > 100 µM | 30.7 | 35.5 µM | 52.3 | 44.5 µM | > 100 µM | 55.6 µM | 36.3 | – | 38.6 µM | – | – | – | – | – | – | –
13 | c1ccc2c(c1)OCCOCCOc1ccccc1OCCO2 | > 100 µM | 77.1 | > 100 µM | > 100 | – | > 100 µM | > 100 µM | > 100 | – | – | – | – | – | – | – | – | –
14 | NC1(CCNC(=O)c2ccccc2)CCN(C(=O)c2ccccc2)CC1 | > 100 µM | > 100 | > 100 µM | – | > 100 µM | > 100 µM | > 100 µM | > 100 | > 100 µM | > 100 µM | – | – | – | – | – | – | –
15 | CC(=O)NC1C(Sc2ncn(C3OC(CO)C(O)C(O)C3NC(C)=O)n2)OC(CO)C(O)C1O (stereo not given) | > 100 µM | > 100 | > 100 µM | > 100 | > 100 µM | > 100 µM | – | > 100 | > 100 µM | > 100 µM | – | – | – | – | – | – | –
16 | COc1ccc(CNc2nc(NC3CCCCC3)nc(NC3CCCCC3)n2)cc1 | > 100 µM | 50 | > 100 µM | > 100 | – | > 100 µM | 67.2 µM | > 100 | > 100 µM | > 100 µM | – | – | – | – | – | – | –
17 | CN1CCc2c(sc3[nH]c(=S)[nH]c(=S)c23)C1 | > 100 µM | > 100 | > 100 µM | > 100 | > 100 µM | > 100 µM | – | > 100 | > 100 µM | > 100 µM | – | – | – | – | – | – | –
18 | CCCC(=O)[O-].CCCC(=O)[O-].NCCN.NCCN.[Co+3].[O-][Cl+3]([O-])([O-])[O-] | > 100 µM | > 100 | > 100 µM | > 100 | – | > 100 µM | > 100 µM | > 100 | – | – | – | – | – | – | – | – | –
19 | O=Cc1ccc(-c2ccc(-c3ccc(CO)s3)o2)s1 | 78.8 µM | > 100 | > 53.2 µM | > 100 | – | > 100 µM | > 71.3 µM | > 70.6 | > 71.6 µM | > 100 µM | – | – | – | – | – | – | –
20 | COc1ccc(N2C(=O)C(=O)N(c3ccc(N=Nc4ccccc4)cc3)C2=S)cc1 | 68.4 µM | 32.6 | 37.1 µM | 37.7 | 40.3 µM | 53.4 µM | 30.3 µM | – | 34.3 µM | 33.8 µM | – | – | – | – | – | – | –
21 | CC(=O)c1ccc2c(c1)C(=O)c1sc(C(C)=O)cc1C2=O | 14.3 µM and 21.4 µM | 50 | 2.82 µM and 9.47 µM | – | 2.02 µM and 3.38 µM | 1.66 µM and 2.61 µM | 2.15 µM and 2.69 µM | 2.21 | 2.12 µM and 3 µM | 7.12 µM and 11.3 µM | 5.66 | 2.71 | 2.55 | 0.316 | 1.34 | 1.4 | 1.54
22 | COc1cccc(-c2nc(-c3cnccn3)n(C/C=C/c3ccccc3)n2)c1 | – | > 10 | > 10 µM | > 10 | > 10 µM | > 10 µM | > 10 µM | > 10 | – | > 10 µM | – | – | – | – | – | – | –
23 | N#Cc1cc2c(cc1Cl)Sc1nnc(Nc3ccccc3)n1S2(=O)=O | 17.3 µM | 3.13 | 6.91 µM | 7.79 | – | 6.66 µM | 3.89 µM | 4.78 | 5.2 µM | 3.89 µM | – | – | – | – | – | – | –
